Activity calls are given as the source filed them.
What was measured:
Format in all cases: functional
[1] = Antioxidant activity assessed as metal chelating activity by measuring inhibition of ferrozine-Fe2+ complex formation at 25 to 100 ug/ml
[2] = system: Radical scavenging activity; test: Antioxidant activity assessed as DPPH radical scavenging activity at 100 ug/ml
[3] = system: Aspergillus flavus; test: Antimicrobial activity against Aspergillus flavus MTCC 1973 at 500 ug/ml after 72 hrs by cup plate method; details: MTCC 1973, 72 h, read-out: IZ
[4] = system: Aspergillus flavus; test: Antimicrobial activity against Aspergillus flavus MTCC 1973 at 750 ug/ml after 72 hrs by cup plate method; details: MTCC 1973, 72 h, read-out: IZ
[5] = system: Aspergillus flavus; test: Antimicrobial activity against Aspergillus flavus MTCC 1973 at 1000 ug/ml after 72 hrs by cup plate method; details: MTCC 1973, 72 h, read-out: IZ
[6] = system: Aspergillus terreus; test: Antimicrobial activity against Aspergillus terreus MTCC 1782 at 500 ug/ml after 72 hrs by cup plate method; details: MTCC 1782, 72 h, read-out: IZ
[7] = system: Aspergillus terreus; test: Antimicrobial activity against Aspergillus terreus MTCC 1782 at 750 ug/ml after 72 hrs by cup plate method; details: MTCC 1782, 72 h, read-out: IZ
[8] = system: Aspergillus terreus; test: Antimicrobial activity against Aspergillus terreus MTCC 1782 at 1000 ug/ml after 72 hrs by cup plate method; details: MTCC 1782, 72 h, read-out: IZ
[9] = system: Aspergillus oryzae; test: Antimicrobial activity against Aspergillus oryzae MTCC 3567 at 500 ug/ml after 72 hrs by cup plate method; details: MTCC 3567, 72 h, read-out: IZ
[10] = system: Aspergillus oryzae; test: Antimicrobial activity against Aspergillus oryzae MTCC 3567 at 750 ug/ml after 72 hrs by cup plate method; details: MTCC 3567, 72 h, read-out: IZ
[11] = system: Aspergillus oryzae; test: Antimicrobial activity against Aspergillus oryzae MTCC 3567 at 1000 ug/ml after 72 hrs by cup plate method; details: MTCC 3567, 72 h, read-out: IZ
[12] = system: Aspergillus niger; test: Antimicrobial activity against Aspergillus niger MTCC 281 at 500 ug/ml after 72 hrs by cup plate method; details: MTCC 281, 72 h, read-out: IZ
[13] = system: Aspergillus niger; test: Antimicrobial activity against Aspergillus niger MTCC 281 at 750 ug/ml after 72 hrs by cup plate method; details: MTCC 281, 72 h, read-out: IZ
[14] = system: Pseudomonas aeruginosa; test: Antimicrobial activity against Pseudomonas aeruginosa MTCC 1688 at 500 ug/ml after 24 hrs by cup plate method; details: MTCC 1688, 24 h, read-out: IZ
[15] = system: Pseudomonas aeruginosa; test: Antimicrobial activity against Pseudomonas aeruginosa MTCC 1688 at 750 ug/ml after 24 hrs by cup plate method; details: MTCC 1688, 24 h, read-out: IZ
[16] = system: Pseudomonas aeruginosa; test: Antimicrobial activity against Pseudomonas aeruginosa MTCC 1688 at 1000 ug/ml after 24 hrs by cup plate method; details: MTCC 1688, 24 h, read-out: IZ
[17] = system: Klebsiella pneumoniae; test: Antimicrobial activity against Klebsiella pneumoniae NCTC 13368 at 500 ug/ml after 24 hrs by cup plate method; details: NCTC 13368, 24 h, read-out: IZ
[18] = system: Klebsiella pneumoniae; test: Antimicrobial activity against Klebsiella pneumoniae NCTC 13368 at 750 ug/ml after 24 hrs by cup plate method; details: NCTC 13368, 24 h, read-out: IZ
[19] = system: Klebsiella pneumoniae; test: Antimicrobial activity against Klebsiella pneumoniae NCTC 13368 at 1000 ug/ml after 24 hrs by cup plate method; details: NCTC 13368, 24 h, read-out: IZ
[20] = system: Staphylococcus aureus; test: Antimicrobial activity against Staphylococcus aureus ATCC 29513 at 500 ug/ml after 24 hrs by cup plate method; details: ATCC 29513, 24 h, read-out: IZ
[21] = system: Staphylococcus aureus; test: Antimicrobial activity against Staphylococcus aureus ATCC 29513 at 750 ug/ml after 24 hrs by cup plate method; details: ATCC 29513, 24 h, read-out: IZ
[22] = system: Staphylococcus aureus; test: Antimicrobial activity against Staphylococcus aureus ATCC 29513 at 1000 ug/ml after 24 hrs by cup plate method; details: ATCC 29513, 24 h, read-out: IZ
[23] = system: Escherichia coli; test: Antimicrobial activity against Escherichia coli MTCC 723 at 500 ug/ml after 24 hrs by cup plate method; details: MTCC 723, 24 h, read-out: IZ
[24] = system: Escherichia coli; test: Antimicrobial activity against Escherichia coli MTCC 723 at 750 ug/ml after 24 hrs by cup plate method; details: MTCC 723, 24 h, read-out: IZ
[25] = system: Escherichia coli; test: Antimicrobial activity against Escherichia coli MTCC 723 at 1000 ug/ml after 24 hrs by cup plate method; details: MTCC 723, 24 h, read-out: IZ
[26] = system: Aspergillus niger; test: Antimicrobial activity against Aspergillus niger MTCC 281 at 1000 ug/ml after 72 hrs by cup plate method; details: MTCC 281, 72 h, read-out: IZ

Structure (SMILES) | Activity [1] | zone of inhibition at 500 µg/mL [3] [mm] | zone of inhibition at 750 µg/mL [4] [mm] | zone of inhibition at 1000 µg/mL [5] [mm] | zone of inhibition at 500 µg/mL [9] [mm] | zone of inhibition at 750 µg/mL [10] [mm] | zone of inhibition at 1000 µg/mL [11] [mm] | zone of inhibition at 500 µg/mL [12] [mm] | zone of inhibition at 750 µg/mL [13] [mm] | zone of inhibition at 500 µg/mL [14] [mm] | zone of inhibition at 750 µg/mL [15] [mm] | zone of inhibition at 1000 µg/mL [16] [mm] | zone of inhibition at 500 µg/mL [17] [mm] | zone of inhibition at 750 µg/mL [18] [mm] | zone of inhibition at 1000 µg/mL [19] [mm] | zone of inhibition at 500 µg/mL [20] [mm] | zone of inhibition at 750 µg/mL [21] [mm] | zone of inhibition at 1000 µg/mL [22] [mm] | zone of inhibition at 500 µg/mL [23] [mm] | zone of inhibition at 750 µg/mL [24] [mm] | further results
Cc1ccc(C2=CC(c3c(-c4ccccc4)[nH]c4ccc(C)cc34)c3c(N)n[nH]c3O2)cc1 (stereo not drawn) | Active | 4 | 4 | 3 | 10 | 9 | 9 | 9 | 9 | 8 | 4 | 4 | 11 | 10 | 10 | 7 | 5 | 5 | 8 | 9 | Activity [2]: Active; zone of inhibition at 500 µg/mL [6]: 0 mm; zone of inhibition at 750 µg/mL [7]: 0 mm; zone of inhibition at 1000 µg/mL [8]: 0 mm; zone of inhibition at 1000 µg/mL [25]: 10 mm
N#CC1=C(N)OC(c2ccc(Cl)cc2)=CC1c1c(-c2ccccc2)[nH]c2ccc(Cl)cc12 (stereo not drawn) | Active | 12 | 12 | 13 | 10 | 10 | 9 | 10 | 10 | 10 | 10 | 10 | 10 | 10 | 10 | 13 | 13 | 13 | 13 | 13 | Activity [2]: Active; zone of inhibition at 1000 µg/mL [26]: 10 mm; zone of inhibition at 1000 µg/mL [25]: 14 mm
Nc1nc(=O)[nH]c2c1C(c1c(-c3ccccc3)[nH]c3ccc(Cl)cc13)C=C(c1ccccc1)O2 (stereo not drawn) | Active | 10 | 10 | 9 | 12 | 12 | 12 | 10 | 10 | 9 | 8 | 5 | 11 | 10 | 10 | 3 | 3 | 3 | 10 | 10 | zone of inhibition at 500 µg/mL [6]: 3 mm; zone of inhibition at 750 µg/mL [7]: 3 mm; zone of inhibition at 1000 µg/mL [8]: 3 mm; zone of inhibition at 1000 µg/mL [26]: 8 mm; zone of inhibition at 1000 µg/mL [25]: 10 mm
Cc1ccc(C2=CC(c3c(-c4ccccc4)[nH]c4ccc(Cl)cc34)C(C#N)=C(N)O2)cc1 (stereo not drawn) | Active | 5 | 5 | 5 | 8 | 8 | 2 | 4 | 3 | 6 | 6 | 3 | 10 | 10 | 10 | 8 | 5 | 6 | 10 | 10 | zone of inhibition at 500 µg/mL [6]: 5 mm; zone of inhibition at 750 µg/mL [7]: 3 mm; zone of inhibition at 1000 µg/mL [8]: 3 mm; zone of inhibition at 1000 µg/mL [26]: 3 mm; zone of inhibition at 1000 µg/mL [25]: 10 mm
Cc1ccc(C2=CC(c3c(-c4ccccc4)[nH]c4ccccc34)c3c(nc[nH]c3=O)O2)cc1 (stereo not drawn) | Active | 3 | 3 | 5 | 3 | 3 | 3 | 8 | 8 | 4 | 3 | 3 | 6 | 6 | 6 | 2 | 2 | 2 | 3 | 3 | zone of inhibition at 500 µg/mL [6]: 8 mm; zone of inhibition at 750 µg/mL [7]: 8 mm; zone of inhibition at 1000 µg/mL [8]: 8 mm; zone of inhibition at 1000 µg/mL [26]: 11 mm; zone of inhibition at 1000 µg/mL [25]: 3 mm
Cc1ccc2[nH]c(-c3ccccc3)c(C3C=C(c4ccccc4)Oc4[nH]nc(N)c43)c2c1 (stereo not drawn) | Active | 5 | 2 | 1 | 9 | 8 | 8 | 5 | 5 | 9 | 8 | 8 | 3 | 3 | 3 | 6 | 5 | 5 | 3 | 3 | zone of inhibition at 500 µg/mL [6]: 9 mm; zone of inhibition at 750 µg/mL [7]: 9 mm; zone of inhibition at 1000 µg/mL [8]: 9 mm; zone of inhibition at 1000 µg/mL [26]: 3 mm; zone of inhibition at 1000 µg/mL [25]: 3 mm
Cc1ccc2[nH]c(-c3ccccc3)c(C3C=C(c4ccccc4)OC(N)=C3C#N)c2c1 (stereo not drawn) | Active | 2 | 2 | 4 | 8 | 4 | 3 | 9 | 10 | 6 | 5 | 5 | 4 | 4 | 4 | 5 | 5 | 5 | 6 | 6 | zone of inhibition at 500 µg/mL [6]: 6 mm; zone of inhibition at 750 µg/mL [7]: 5 mm; zone of inhibition at 1000 µg/mL [8]: 5 mm; zone of inhibition at 1000 µg/mL [26]: 10 mm; zone of inhibition at 1000 µg/mL [25]: 5 mm
Cc1ccc2[nH]c(-c3ccccc3)c(C3C=C(c4ccccc4)Oc4[nH]c(=O)nc(N)c43)c2c1 (stereo not drawn) | Active | 8 | 8 | 7 | 9 | 8 | 5 | 10 | 9 | 10 | 10 | 10 | 6 | 5 | 5 | 11 | 11 | 11 | 8 | 8 | zone of inhibition at 500 µg/mL [6]: 8 mm; zone of inhibition at 750 µg/mL [7]: 8 mm; zone of inhibition at 1000 µg/mL [8]: 9 mm; zone of inhibition at 1000 µg/mL [26]: 10 mm; zone of inhibition at 1000 µg/mL [25]: 8 mm
